≈ marks a conversion by molar mass, not a printed value. Structures can show the parent of a compound that is named as a salt. Where two headings read alike, the source gives them in different places.
What was measured:
S. aureus Smith [1] = assay: In vitro antibacterial activity, MIC (standard strain); type: cell-based, Staphylococcus aureus
[2] = system: Streptococcus pyogenes S-8; assay: as above; type: cell-based; settings: S8
S. pyogenes IID 692 = assay: as above; type: cell-based; settings: Streptococcus pyogenes, IID692; S. pyogenes IID 692; 10^6 cells/ml; standard strain; read-out: MIC
S. faecalis IID 682 = assay: as above; type: cell-based; settings: Enterococcus faecalis, IID682
[3] = system: Escherichia coli NIHJ JC-2; assay: as above; type: cell-based; settings: Escherichia coli
E. coli ML 4707 = assay: as above; type: cell-based; settings: Escherichia coli, ML4707
[4] = system: Citrobacter freundii IID 976; assay: as above; type: cell-based; settings: IID976; Citrobacter freundii IID 976; 10^6 cells/ml; standard strain; read-out: MIC
[5] = system: Klebsiella pneumoniae KY(GN)6445; assay: as above; type: cell-based; settings: Klebsiella pneumoniae KY(GN)6445; 10^6 cells/ml; standard strain; read-out: MIC
K. pneumoniae 1-220S = assay: as above; type: cell-based; settings: Klebsiella pneumoniae, 1220S; K. pneumoniae 1-220S; 10^6 cells/ml; standard strain; read-out: MIC
Shigella sonnei IID 969 = assay: as above; type: cell-based; settings: IID969, 10^6 cells/ml
Method: Experiment-1 In vitro antibacterial activity
The in vitro antibacterial activity against gram-positive and gram-negative bacteria has been investivated.
The minimum inhibitory concentration (MIC) was determined in accordance with the method recommended by Japan Society of Chemotherapy.

[6] = system: Yersinia enterocolitica IID 981; assay: as above; type: cell-based; settings: IID981; Yersinia enterocolitica IID 981; 10^6 cells/ml; standard strain; read-out: MIC
S. marcescens GN 7577 = assay: as above; type: cell-based; settings: Serratia marcescens, GN7577
P. aeruginosa IFO 12689 = assay: as above; type: cell-based, Pseudomonas aeruginosa; settings: Pseudomonas aeruginosa, IFO12689; P. aeruginosa IFO 12689; 10^6 cells/ml; standard strain; read-out: MIC
[7] = system: Alcaligenes faecalis 0104002; assay: as above; type: cell-based; settings: Alcaligenes faecalis, 0104002, Alcaligenes faecalis 0104002; 10^6 cells/ml; standard strain; read-out: MIC
B. fragilis 0558 = assay: as above; type: cell-based, Bacteroides fragilis; settings: Bacteroides fragilis, 0558, B. fragilis 0558; 10^6 cells/ml; standard strain; read-out: MIC
[8] = system: Fusobacterium varium KYA 8501; assay: as above; type: cell-based; settings: Fusobacterium varium, KYA8501, Fusobacterium varium KYA 8501; 10^6 cells/ml; standard strain; read-out: MIC
S. pneumoniae 24 = assay: In vitro antibacterial activity, MIC (clinical isolates); type: cell-based; settings: Streptococcus pneumoniae
S. pneumoniae 3227 = assay: as above; type: cell-based; settings: Streptococcus pneumoniae
S. pyogenes 3130 = assay: as above; type: cell-based; settings: Streptococcus pyogenes
S. pyogenes 4340 = assay: as above; type: cell-based; settings: Streptococcus pyogenes
S. agalactiae 4342 = assay: as above; type: cell-based; settings: Streptococcus agalactiae; S. agalactiae 4342; 10^6 cells/ml; clinical isolate; read-out: MIC
S. agalactiae 4468 = assay: as above; type: cell-based; settings: Streptococcus agalactiae; S. agalactiae 4468; 10^6 cells/ml; clinical isolate; read-out: MIC
S. faecalis 49 = assay: as above; type: cell-based; settings: Enterococcus faecalis; S. faecalis 49; 10^6 cells/ml; clinical isolate; read-out: MIC
S. faecalis 402 = assay: as above; type: cell-based; settings: Enterococcus faecalis; S. faecalis 402; 10^6 cells/ml; clinical isolate; read-out: MIC
S. aureus Smith [9] = assay: In vivo antibacterial activity against systemic infection in mice; design: species or system mice (ICR-S); settings: Staphylococcus aureus, po, mice (ICR-S), an hour after intraperitoneal infection
Method: (§1) Experiment-2 In vivo antibacterial activity against systemic infection in mice (ICR-S)
(§2) The infections were produced by intraperitoneal injection of a suspension of the bacterial culture corresponding to the germ studied. The products were administered orally at an hour after the infection.

E. coli ML4707 = assay: as above; design: species or system mice (ICR-S); settings: for ED50: Escherichia coli, ML4707, mice (ICR-S), oral, an hour after intraperitoneal infection, challenge dose 2.7 x 10^6 ~ 8.8 x 10^6 cfu/mouse, read-out: ED50 E. coli ML4707
Method: as §1, §2

S. pneumoniae S-4288 = assay: as above; design: species or system mice (ICR-S); settings: Streptococcus pneumoniae, S4288; mice (ICR-S); oral, an hour after intraperitoneal infection; challenge dose 7.5 x 10^4 ~ 4.8 x 10^6 cfu/mouse; read-out: ED50 S. pneumoniae S-4288
Method: as §1, §2

[10] = MIC column of Table 3-1, beside ED50 against S. aureus Smith
[11] = Staphylococcus aureus, S. aureus Smith, 10^6 cells/ml, standard strain, read-out: MIC
[12] = Streptococcus pyogenes S-8, 10^6 cells/ml, standard strain, read-out: MIC
[13] = S. faecalis IID 682, 10^6 cells/ml, standard strain, read-out: MIC
[14] = NIHJJC2, Escherichia coli NIHJ JC-2, 10^6 cells/ml, standard strain, read-out: MIC
[15] = E. coli ML 4707, 10^6 cells/ml, standard strain, read-out: MIC
[16] = S. marcescens GN 7577, 10^6 cells/ml, standard strain, read-out: MIC
[17] = S. pneumoniae 24, 10^6 cells/ml, clinical isolate, read-out: MIC
[18] = S. pneumoniae 3227, 10^6 cells/ml, clinical isolate, read-out: MIC
[19] = S. pyogenes 4340, 10^6 cells/ml, clinical isolate, read-out: MIC
[20] = challenge dose 6.0 x 10^5 cfu/mouse, read-out: ED50 S. aureus Smith
[21] = Staphylococcus aureus, S. aureus Smith, 10^6 cells/ml, standard strain

Row | SMILES | MIC [2, 12] [µg/mL] | MIC (S. pyogenes IID 692) [µg/mL] | MIC (S. faecalis IID 682; [13]) [µg/mL] | MIC [3, 14] [µg/mL] | MIC (E. coli ML 4707; [15]) [µg/mL] | MIC [4] [µg/mL] | MIC [5] [µg/mL] | MIC (K. pneumoniae 1-220S) [µg/mL] | MIC (Shigella sonnei IID 969) [µg/mL] | MIC [6] [µg/mL] | MIC (S. marcescens GN 7577; [16]) [µg/mL] | MIC (P. aeruginosa IFO 12689) [µg/mL] | MIC [7] [µg/mL] | MIC (B. fragilis 0558) [µg/mL] | MIC [8] [µg/mL] | MIC (S. pneumoniae 24; [17]) [µg/mL] | MIC (S. agalactiae 4342) [µg/mL] | MIC (S. agalactiae 4468) [µg/mL] | MIC (S. faecalis 49) [µg/mL] | MIC (S. faecalis 402) [µg/mL] | other results
1 | NCC1CCN(c2c(F)cc3c(=O)c(C(=O)O)cn(C4CC4)c3c2F)C1 (stereo not drawn) [Example 1, 7-(3-Aminomethyl-l-pyrrolidinyl)-l-cyclopropyl-6,8-difluoro-1,4-dihydro-4-oxo-3-quinolinecarboxylic acid hydrochloride] | 0.05 | 0.05 | 0.05 | 0.025 | 0.025 | 0.05 | 0.05 | 0.05 | 0.025 | 0.05 | 0.78 | 0.39 | 0.39 | 0.39 | 0.78 | 0.05 | 0.05 | 0.05 | 0.1 | 0.1 | MIC (S. aureus Smith [1]; [10]): 0.05 µg/mL; MIC (S. aureus Smith [1]; [11]): 0.05 µg/mL; MIC (S. pneumoniae 3227; [18]): 0.05 µg/mL; MIC (S. pyogenes 3130; read-out: MIC): 0.05 µg/mL; MIC (S. pyogenes 4340; [19]): 0.05 µg/mL; ED50 (S. aureus Smith [9]; challenge dose 7 x 10^5 cfu/mouse, n=5, read-out: ED50 against S. aureus Smith): 0.9 mg/kg
2 | CCNCC1CCN(c2c(F)cc3c(=O)c(C(=O)O)cn(C4CC4)c3c2F)C1 (stereo not drawn) [Example 2, l-Cyclopropyl-7-(3-ethylaminomethyl-l-pyrrolidinyl)-6,8-difluoro-l,4-dihydro-4-oxo-3-quinolinecarboxylic acid hydrochloride] | 0.1 | 0.2 | 0.2 | 0.025 | 0.025 | 0.05 | 0.05 | 0.1 | 0.025 | 0.1 | 1.56 | 1.56 | 0.1 | 0.78 | 1.56 | 0.05 | 0.1 | 0.1 | 0.2 | 0.2 | MIC (S. aureus Smith [1]; [10]): 0.025 µg/mL; MIC (S. aureus Smith [1]; [11]): 0.025 µg/mL; MIC (S. pneumoniae 3227; [18]): 0.1 µg/mL; MIC (S. pyogenes 3130; read-out: MIC): 0.05 µg/mL; MIC (S. pyogenes 4340; [19]): 0.1 µg/mL; ED50 (E. coli ML4707): 0.8 mg/kg; activity against gram-negative bacterial infections compared with the reference compounds (E. coli ML4707; systemic infection in mice, result in words): greater activity against gram-negative bacterial infections than the reference compounds; ED50 (S. aureus Smith [9]; challenge dose 5.5 x 10^5 cfu/mouse, n=5, read-out: ED50 against S. aureus Smith): 0.97 mg/kg; ED50 (S. aureus Smith [9]; [20]): 0.9 mg/kg; ED50 (S. pneumoniae S-4288): 4.6 mg/kg
3 | CNCC1CCN(c2c(F)cc3c(=O)c(C(=O)O)cn(C4CC4)c3c2F)C1 (stereo not drawn) [Example 8, 1-Cyclopropyl-6,8-difluoro-1,4-dihydro-7-(3-methylaminomethyl-l-pyrrolidinyl)-4-oxo-3-quinolinecarboxylic acid hydrochloride] | 0.05 | 0.05 | 0.1 | 0.025 | 0.025 | 0.025 | 0.025 | 0.1 | 0.0125 | 0.1 | 1.56 | 1.56 | 0.39 | 0.39 | 0.78 | 0.05 | 0.2 | 0.1 | 0.1 | 0.2 | MIC (S. aureus Smith [1]; [11]): 0.025 µg/mL; MIC (S. pyogenes 3130; read-out: MIC): 0.05 µg/mL; MIC (S. pyogenes 4340; [19]): 0.05 µg/mL; ED50 (E. coli ML4707): 1.9 mg/kg; ED50 (S. aureus Smith [9]; [20]): 1.1 mg/kg; ED50 (S. pneumoniae S-4288): 16.1 mg/kg
4 | CNCC1CCN(c2c(F)cc3c(=O)c(C(=O)O)cn(C4CC4)c3c2Cl)C1 (stereo not drawn) [Example 12, 8-Chloro-l-cyclopropyl-6-fluoro-1,4-dihydro-7-(3-methylaminomethyl-1-pyrrolidinyl)-4-oxo-3-quinolinecarboxylic acid hydrochloride] | 0.05 | 0.05 | 0.05 | 0.025 | 0.025 | 0.05 | 0.05 | 0.05 | 0.025 | 0.05 | 0.78 | 0.78 | 0.39 | 0.1 | 0.39 | 0.05 | 0.05 | 0.05 | 0.05 | 0.1 | MIC (S. aureus Smith [1]; [11]): 0.025 µg/mL; MIC (S. pneumoniae 3227; [18]): 0.05 µg/mL; MIC (S. pyogenes 3130; read-out: MIC): 0.05 µg/mL; MIC (S. pyogenes 4340; [19]): 0.05 µg/mL; ED50 (E. coli ML4707): 1.9 mg/kg; ED50 (S. aureus Smith [9]; [20]): 0.5 mg/kg; ED50 (S. pneumoniae S-4288): 6.5 mg/kg
5 | NCC1CCN(c2c(F)cc3c(=O)c(C(=O)O)cn(C4CC4)c3c2Cl)C1 (stereo not drawn) [Example 14, 8-Chloro-l-cyclopropyl-6-fluoro-l,4-dihydro-7-(3-aminomethyl-l-pyrrolidinyl)-4-oxo-3-quinolinecarboxylic acid hydrochloride] | 0.05 | 0.05 | 0.05 |  |  | 0.025 | 0.025 | 0.05 | 0.0125 | 0.05 | 0.39 | 0.39 | 0.2 | 0.05 | 0.39 | 0.05 | 0.05 | 0.05 | 0.05 | 0.05 | MIC (S. aureus Smith [1]; [21]): 0.0125 µg/mL; MIC ([3]; NIHJJC2): 0.0125 µg/mL; MIC (E. coli ML 4707): 0.0125 µg/mL; MIC (S. pneumoniae 3227; [18]): 0.05 µg/mL; MIC (S. pyogenes 3130; read-out: MIC): 0.025 µg/mL; MIC (S. pyogenes 4340; [19]): 0.05 µg/mL; ED50 (E. coli ML4707): 5.4 mg/kg; ED50 (S. pneumoniae S-4288): 10 mg/kg
6 | CCn1cc(C(=O)O)c(=O)c2cc(F)c(N3CCNCC3)cc21 [NFLX, Norfloxacin, reference compound] |  | 3.13 (≈ 9.8 µM) |  | 0.025 (≈ 0.0783 µM) | 0.05 (≈ 0.157 µM) | 0.05 (≈ 0.157 µM) | 0.05 (≈ 0.157 µM) | 0.2 (≈ 0.626 µM) | 0.05 (≈ 0.157 µM) | 0.1 (≈ 0.313 µM) |  | 0.78 (≈ 2.44 µM) | 3.13 (≈ 9.8 µM) | 25 (≈ 78.3 µM) | 100 (≈ 313 µM) |  | 6.25 (≈ 19.6 µM) | 3.13 (≈ 9.8 µM) | 3.13 (≈ 9.8 µM) | 6.25 (≈ 19.6 µM) | MIC (S. aureus Smith [1]; [21]): 1.56 µg/mL (≈ 4.89 µM); MIC ([2]; Streptococcus pyogenes): 1.56 µg/mL (≈ 4.89 µM); MIC (S. faecalis IID 682): 1.56 µg/mL (≈ 4.89 µM); MIC (S. marcescens GN 7577): 1.56 µg/mL (≈ 4.89 µM); MIC (S. pneumoniae 24; 24): 12.5 µg/mL (≈ 39.1 µM); MIC (S. pneumoniae 3227; 3227): 12.5 µg/mL (≈ 39.1 µM); MIC (S. pyogenes 3130): 1.56 µg/mL (≈ 4.89 µM); MIC (S. pyogenes 4340; 4340): 1.56 µg/mL (≈ 4.89 µM)

From patent EP0183129A1, “Quinolonecarboxylic acid derivatives” (KYORIN PHARMACEUTICAL CO., LTD., priority 1984, dated 1986)
